Data reported in US20240117385A1, “ENZYMES OF LUCIFERIN BIOSYNTHESIS AND USE THEREOF” (LIGHT BIO, INC., priority 2018, published 2024).

B1: Neonothopanus nambi hispidin hydroxylase: isolated recombinant hispidin hydroxylase from Neonothopanus nambi (protein, listed as Neonothopanus nambi)
chain: MASFENSLSVLIVGAGLGGLAAAIALRRQGHVVKIYDSSSFKAELGAGLAVPPNTLRSLQQLGCNTENLNGVDNLCFTAMGYDGSVGMMNNMTDYREAYGTSWIMVHRVDLHNELMRVALDPGGLGPPATLHLNHRVTFCDVDACTVTFTNGTTQSADLIVGADGIRSTIRRFVLEEDVTVPASGIVGFRWLVQADALDPYPELDWIVKKPPLGARLISTPQNPQSGVGLADRRTIIIYACRGGTMVNVLAVHDDERDQNTADWSVPASKDDLFRVFHDYHPRFRRLLELAQDINLWQMRVVPVLKKWVNKRVCLLGDAAHASLPTLGQGFGMGLEDAVALGTLLPKGTTASQIETRLAVYEQLRKDRAEFVAAESYEEQYVPEMRGLYLRSKELRDRVMGYDIKVESEKVLETLLRSSNSA
B2: SEQ ID NO: 135: plant type III polyketide synthase (PKS) (protein, listed as Wachendorfia thyrsiflora)
chain: MASTEGIQAYRNNMAEGPATIMAIGTANPPNVVDASTFPDYYWRVTNSEHLSPEYRVKLKRICERSSIRKRHLVLTEQLLKENPTLTTYVDASYDERQSIVLDAVPKLACEAAAKAIKEWGRPKTDITHMVVCTGAGVDVPGVDYKMMNLLGLPPTVNRVMLYNVGCHASGTVLRIAKDLAENNKGARVLVVSSEVSVMFFRGPAEGDVEILLGQALFGDGSAAIIVGADPIEGVEKPIFQIFSASQMTLPEGEHLVAGHLRELGLTFHLKPQLPNTVSSNIHKPLKKAFEPLNITDWNSIFWIVHPGGRAILDQVQEKIGLEENKLDVSRYVLAENGNMMSASVFFIMDEMRKRSAAQGCSTTGEGHEWGVLFGFGPGLSIETVVLHSVPLSI

These molecules were tested on recombinant hispidin hydroxylases (assay: Functionality test of isolated recombinant hispidin hydroxylases in luminometer). Conditions: 0.2 μM hispidin, 1 mM NADPH, Neonothopanus nambi luciferase.
Assay type: biochemical
Experimental: Polyhistidine sequence (His tag) was operatively attached to 5′-end of nucleic acids coding hispidin-3-hydroxylases and luciferase from Neonothopanus nambi, obtained according to the examples 1 and 2. The obtained structures were cloned into pET-23 vector by means of restriction endonucleases BamHI and HindIII. The vector was used for transformation of Escherichia coli cells of BL21-DE3 strain. The cells were dispersed in Petri dishes with LB medium, comprising 1.5% of agar, 100 μg/ml of ampicillin, and incubated overnight at 37° C. Then, Escherichia coli colonies were transferred into 4 ml of liquid LB medium laced with ampicillin, incubated overnight at 37° C. with fluctuation. 1 ml of overnight culture was transferred into 100 ml of Overnight Express Autoinduction medium (Novagen), where ampicillin was preliminarily added to. The culture was grown at 37° C. within 2.5 hours until reaching optical density of 0.6 OE at 600 nm, and then it was grown at room temperature within 16 hours. […]
Aliquots of isolated recombinant hispidin hydroxylases were used for testing functionality and stability. […] In all cases the luminescence intensity when using hispidin was the highest when using Neonothopanus nambi hispidin hydroxylase and the lowest when using Armillaria mellea hispidin hydroxylase.
With B1 the “luminescence intensity when using hispidin (comparison of hispidin hydroxylases)” value was “highest”.

These molecules were tested on Pichia pastoris GS115 yeast cells expressing luciferase, hispidin hydroxylase and coumarate-CoA ligase 1 (assay: Screening of PKS for hispidin-synthase activity in yeast colonies sprayed with caffeic acid). Conditions: colonies sprayed with caffeic acid solution.
Assay type: cell-based
Source text: The selected nucleotide sequences for expression in Pichia pastoris yeast cells and Nicotiana benthamiana plant cells were optimized. The resulting nucleic acids were obtained synthetically and cloned into pGAPZ vector and used for verifying ability of the expressed proteins to synthesize hispidin.
For this purpose, in genome of Pichia pastoris GS115 yeast line, constitutively expressing Neonothopanus nambi luciferase and hispidin hydroxylase, obtained according to Example 1, there was additionally introduced pGAPZ plasmid, comprising gene of
Arabidopsis thaliana coumarate-CoA ligase 1 (which nucleotide and amino acid sequence are shown in SEQ ID NOs: 140, 141), also obtained by oligonucleotide synthesis. The plasmid was linearized at restriction site AvrII and used for transformation into Pichia pastoris GS115 cells.
The obtained yeast cells, constitutively expressing Neonothopanus nambi luciferase and hispidin hydroxylase and Arabidopsis thaliana coumarate-CoA ligase 1, were […] by plasmids comprising coding PKS sequences, and dispersed in Petri dishes with RDB medium, comprising 1 M of sorbitol, 2% (weight/volume) of glucose, 1.34% (weight/volume) of yeast nitrogen base (YNB), 0.005% (weight/volume) of amino acids mixture, 0.00004% (weight/volume) of biotin and 2% (weight/volume) of agar. To identify enzymes having hispidin-synthase activity, the obtained colonies were sprayed with caffeic acid solution, detecting hispidin-synthase presence in cells by occurrence of luminescence. Luminescence emitted by colonies was detected by means of IVIS Spectrum CT (Perkin Elmer, USA). Yeast line constitutively expressing luciferase, hispidin hydroxylase and coumarate-CoA ligase 1, and also wild yeast cells were used as negative control. […] Amino acid sequences coded by then are shown in SEQ ID NOs: 119, 121, 123, 125, 127, 129, 131, 133, 135, 137, 139 respectively.
For B2, the hispidin-synthase activity was “had hispidin-synthase activity”.

What follows are molecules tested on recombinant hispidin hydroxylase from Neonothopanus nambi (assay: HPLC analysis of hydroxylation by recombinant hispidin hydroxylase). Conditions: 0.2 μM substrate, 1 mM NADPH, 30 minutes.
Assay type: biochemical
Experimental: The isolated recombinant hispidin hydroxylase from Neonothopanus nambi, obtained according to Example 4, was added to reaction mixtures comprising 1 mM of NADPH and 0.2 μM of hispidin, (E)-4-hydroxy-6-styryl-2H-pyran-2-one or (E)-4-hydroxy-6-(4-hydroxystyryl)-2H-pyran-2-one in 100 μl of the buffer (0.2 M of Na-phosphate buffer, 0.5 M of Na2SO4, 0.1% dodecylmaltoside (DDM) pH 8.0). In 30 minutes, the reaction mixture was analyzed by HPLC using synthetic luciferins as standards.
With `O=c1cc(O)cc(/C=C/c2ccc(O)cc2)o1` [(E)-4-hydroxy-6-(4-hydroxystyryl)-2H-pyran-2-one] the “HPLC detection of hydroxylated product” value was “occurrence of peaks corresponding to 3d position hydroxylated derivatives”. For `O=c1cc(O)cc(/C=C/c2ccccc2)o1` [(E)-4-hydroxy-6-styryl-2H-pyran-2-one], the “HPLC detection of hydroxylated product” value was “occurrence of peaks corresponding to 3d position hydroxylated derivatives”.

The molecules below were run on hispidin-synthase and caffeylpyruvate hydrolase with Neonothopanus nambi luciferase and hispidin hydroxylase (assay: Luminescence with recombinant hispidin-synthase, caffeylpyruvate hydrolase, luciferase and hispidin hydroxylase). Conditions: 0.2 μM.
Assay type: biochemical
Experimental: The obtained enzymes were used for obtaining luminescence (bioluminescence) in reaction with Neonothopanus nambi luciferase and hispidin hydroxylase, obtained according to Example 4. 5 μl of each isolated recombinant protein solution were put into a glass tube, comprising 100 μl of the buffer (0.2 M of Na-phosphate buffer, 0.5 M of Na2SO4, 0.1% dodecylmaltoside (DDM) pH 8.0), 1 mM of NADPH (Sigma-Aldrich, USA), 10 mM of ATP (ThermoFisher Scientific, USA), 1 mM of CoA (Sigma-Aldrich, USA), 1 mM of malonyl-CoA (Sigma-Aldrich, USA) and 0.2 μM of one of 3-arylacrylic acids: paracoumaric acid (Sigma-Aldrich, USA), cinnamic acid (Sigma-Aldrich, USA) or ferulic acid (Abcam, USA). In the other experiment instead of substituted 3-arylacrylic acid the analogues of fungal oxyluciferin—(2E,5E)-2-hydroxy-6-(4-hydroxyphenyl)-4-oxohexa-2,5-diene, (2E,5E)-2-hydroxy-4-oxo-6-phenylhexa-2,5-diene, or (2E,5E)-2-hydroxy-6-(4-hydroxy-3-methoxyphenyl)-4-oxohexa-2,5-diene acids—also at concentration of 0.2 μM were put into a glass tube. The glass tubes were placed into a luminometer.
`O=C(/C=C/c1ccccc1)/C=C(/O)C(=O)O` [(2E,5E)-2-hydroxy-4-oxo-6-phenylhexa-2,5-diene acid] was tested, and the luminescence in reaction was “resulted in luminescence”. With `COc1cc(/C=C/C(=O)/C=C(/O)C(=O)O)ccc1O` [(2E,5E)-2-hydroxy-6-(4-hydroxy-3-methoxyphenyl)-4-oxohexa-2,5-diene acid] the luminescence in reaction was “resulted in luminescence”. `O=C(/C=C/c1ccc(O)cc1)/C=C(/O)C(=O)O` [(2E,5E)-2-hydroxy-6-(4-hydroxyphenyl)-4-oxohexa-2,5-diene acid] was tested, and the luminescence in reaction was “resulted in luminescence”. For `O=C(O)/C=C/c1ccccc1` [cinnamic acid], the luminescence in reaction was “resulted in luminescence”. With `COc1cc(/C=C/C(=O)O)ccc1O` [ferulic acid] the luminescence in reaction was “resulted in luminescence”. For `O=C(O)/C=C/c1ccc(O)cc1` [paracoumaric acid], the luminescence in reaction was “resulted in luminescence”.

Each molecule was assayed on luciferase and hispidin hydroxylase of Neonothopanus nambi (assay: Hispidin hydroxylase with hispidin analogues in cell lysate). Conditions: 660 μg/ml, 1 mM NADPH, pH 8.0.
Assay type: biochemical
Experimental: HEK293NT cells, expressing luciferase and hispidin hydroxylase of Neonothopanus nambi, obtained according to Example 2, were rinsed from Petri dishes 24 hours after transfection with Versene solution laced with 0.025% of trypsin, the medium was replaced by phosphate-buffered saline with pH 8.0 by centrifugation, the cells were resuspended, lysed by ultrasound in Bioruptor (Diagenode, Belgium) with in 7 minutes at 0° C. in conditions recommended by the manufacturer, and 1 mM of NADPH (Sigma-Aldrich, USA), and also hispidin or one of its analogues were added to the medium: (E)-4-hydroxy-6-(4-hydroxystyryl)-2H-pyran-2-one, (E)-6-(2-(1H-indol-3-yl)vinyl)-4-hydroxy-2H-pyran-2-one, (E)-6-(2-(1,2,3,5,6,7-hexahydropyrido[3,2,1-ij]quinolin-9-yl)vinyl)-4-hydroxy-2H-pyran-2-one, E)-6-(4-(diethylamino)styryl)-4-hydroxy-2H-pyran-2-one, or (E)-4-hydroxy-6-(2-(6-hydroxynaphthalene-2-yl)vinyl)-2H-pyran-2-one at concentration of 660 μg/ml. Bioluminescence spectra were detected by spectrofluorometer Varian Cary Eclipse. […] Depending on luciferin used the expected displacement of luminescence peak was observed.
`O=c1cc(O)cc(/C=C/c2ccc3cc(O)ccc3c2)o1` [(E)-4-hydroxy-6-(2-(6-hydroxynaphthalene-2-yl)vinyl)-2H-pyran-2-one] was tested, and the Luminescence in lysates was “Luminescence in lysates was observed”. `O=c1cc(O)cc(/C=C/c2ccc(O)cc2)o1` [(E)-4-hydroxy-6-(4-hydroxystyryl)-2H-pyran-2-one] was tested, and the Luminescence in lysates was “Luminescence in lysates was observed”. With `O=c1cc(O)cc(/C=C/c2cc3c4c(c2)CCCN4CCC3)o1` [(E)-6-(2-(1,2,3,5,6,7-hexahydropyrido[3,2,1-ij]quinolin-9-yl)vinyl)-4-hydroxy-2H-pyran-2-one] the Luminescence in lysates was “Luminescence in lysates was observed”. With `O=c1cc(O)cc(/C=C/c2c[nH]c3ccccc23)o1` [(E)-6-(2-(1H-indol-3-yl)vinyl)-4-hydroxy-2H-pyran-2-one] the Luminescence in lysates was “Luminescence in lysates was observed”. `CCN(CC)c1ccc(/C=C/c2cc(O)cc(=O)o2)cc1` [(E)-6-(4-(diethylamino)styryl)-4-hydroxy-2H-pyran-2-one] was tested, and the Luminescence in lysates was “Luminescence in lysates was observed”.
